In patent US8685936B2, “Sphingosine kinase inhibitor prodrugs” (Apogee Biotechnology Corporation, priority 2009, dated 2014):
“Also recorded” adds a separate entry of the source.

Tests used:
DSS-colitis model = assay: Acute DSS-colitis model of inflammatory bowel disease; format: in vivo, C57BL/6 mice; conditions: for colon length (contraction of the colon), ester prodrugs: 4-5 per group (Example 17, FIG. 10)
Experimental: FIG. 7. Effects of Compound 1 and Compound 2 on the Disease Activity Index (DAI) in the acute DSS-colitis model. […] After 6 days, the DAI was calculated for each group. Values represent the mean±std. dev. for 5-6 mice per group. […] FIG. 8. Effects of Compound 1 and Compound 2 on colon length in the acute DSS-colitis model. […] After 6 days, the animals were sacrificed and the length of the colon was measured. Values represent the mean±std. dev. for 6-7 mice per group. In this model, colon length decreases as the disease progresses. […] FIG. 9. Effects of Compound 1 and Compound 2 on neutrophil infiltration into the colon in the acute DSS-colitis model. […] After 6 days, the animals were sacrificed and the colons were harvested. Myeloperoxidase activity (MPO) was measured and normalized by the protein concentration of the samples. Values represent the mean±std. dev. for 6-7 mice per group. In this model, MPO activity in the colon increases as a result of neutrophil infiltration into the colon as the disease progresses. […] FIG. 10. Effects of ester prodrugs on colon length in the acute DSS-colitis model. C57BL/6 mice were treated for 6 days as follows: 2% DSS in the drinking water and daily oral administration of Vehicle (described in FIG. 7); or 2% DSS in the drinking water and oral administration of 50 mg/kg the indicated ester prodrugs in Vehicle. After 6 days, the animals were sacrificed and the length of the colon was measured. Values represent the mean±std. dev. for 4-5 mice per group. In this model, colon length decreases as the disease progresses. […] FIG. 11. Effects of ester prodrugs on neutrophil infiltration into the colon in the acute DSS-colitis model. C57BL/6 mice were treated for 6 days as follows: 2% DSS in the drinking water and daily oral administration of Vehicle (described in FIG. 7); or 2% DSS in the drinking water and oral administration of 50 mg/kg the indicated ester prodrugs in Vehicle. After 6 days, the animals were sacrificed and the length of the colon was measured. Values represent the mean±std. dev. for 4-5 mice per group. In this model, MPO activity in the colon increases as a result of neutrophil infiltration into the colon as the disease progresses. […] In these experiments, male C57BL/6 mice were provided with standard rodent diet and water ad libitum. After their acclimation, the animals were randomly divided into groups of 5 or 6 for DSS (40,000 MW from ICN Biomedicals, Inc., Aurora, Ohio)- and drug-treatment. The Compounds were dissolved in a Vehicle consisting of 46.7% PEG 400, 46.7% of a solution of 0.375% Tween 80 in saline and 6.6% ethanol, and given once daily (starting on Day 0) by oral gavage in a volume of 0.1 mL per dose. The mice were given normal drinking water or 2% DSS (starting on Day 0) and treated orally with Compound 1 or Compound 2 at a dose of 50 mg/kg daily. The body weight of each animal was measured each day, and the Disease Activity Index (DAI) was scored for each animal on Day 6. On Day 6, the animals were sacrificed by cervical dislocation and the entire colon was removed and measured to the nearest 0.1 cm. The distal 3 cm of the colons were used for biochemical analyses of inflammation markers.

[1] = Conversion of Compound 2 to Compound 1 in living mice; plasma levels of Compound 1 by HPLC; format: in vivo
Experimental: FIG. 4. Conversion of Compound 2 into Compound 1 in vivo. Balb/C female mice, 6-8 weeks old, were dosed with either Compound 1 (●) or Compound 2 (♦) at 50 mg/kg by intravenous injection. Mice were euthanized at the indicate times after injection, and blood was harvested by cardiac puncture and plasma was prepared. The plasma was then extracted and analyzed for Compound 1 levels by HPLC.
To extend the in vitro studies described above, the ability of Compound 2 to be converted to Compound 1 in an in vivo test system was determined. In these experiments, Compound 1 or Compound 2 was dissolved in PEG400 and administered to female Balb/C mice at a dose of 50 mg/kg by intravenous injection. Mice were sacrificed and blood was removed via cardiac puncture at 2 minutes, 15 minutes, 30 minutes or 60 minutes. The concentration of Compound 1 in the blood of the animals at each of the time points was determined using HPLC with UV detection as described in the previous Example. […] In the case of administration of Compound 2, plasma concentrations of Compound 1 rose during the first 30 minutes and then were decreased with a half-time of clearance of approximately 20 minutes.

[2] = tested on: TNBS-induced Crohn's Disease model; assay: TNBS-induced Crohn's Disease model; format: in vivo
Experimental: FIG. 12. Effects of Compound 1 and Compound 2 on colon histology in the TNBS-induced Crohn's Disease model. On Day 0, female Sprague-Dawley rats were administered TNBS using a stainless steel catheter that was inserted into the colon (8 cm proximal to the anus; 1.0 mL of solution containing 30 mg TNBS and 20% ethanol in PBS). On Days 0-5 animals received daily oral gavage of Vehicle (described in FIG. 7) or 50 mg/kg of Compound 1 or Compound 2 in Vehicle. On Day 6, the colons were removed, weighed and scored for macroscopic damage. The distal 6 cm were transected for subsequent histology and biochemical analyses. In this model, the macroscopic score is an index of histologic damage to the colon which increases as the disease progresses.
FIG. 13. Effects of Compound 1 and Compound 2 on colon weight in the TNBS-induced Crohn's Disease model. Colon weights were measured for the rats described in FIG. 12. Values represent the mean±std. dev. for 5-6 rats per group. In this model, colon weight increases as the disease progresses due to progressive inflammation-mediated edema.
FIG. 14. Effects of Compound 2 on neutrophil infiltration into the colon in the TNBS-induced Crohn's Disease model. Neutrophil infiltration was evaluated in the rats described in FIG. 12. Values represent the mean±std. dev. for 5-6 rats per group. In this model, MPO activity in the colon increases as a result of neutrophil infiltration into the colon as the disease progresses.
The trinitrobenzene sulfonic acid (TNBS) model in rats provides a rapid, reliable and reproducible IBD model that mimics the manifestations of Crohn's Disease. Application of the hapten TNBS to the colon in the presence of ethanol results in transmural infiltrative disease that is limited to the colon and appears to be an IL-12-driven, Th1-mediated immunologic response. […] TNBS induces measurable injury within 2 to 3 days, peak acute inflammation within a week, and gradual progression into chronic inflammation lasting about 2 months.
To test the efficacy of the Compounds, groups of female Sprague-Dawley rats were administered TNBS on Day 0 and treated with vehicle (as the negative control group), Compound 1 or Compound 2 on Days 0-5 by oral gavage at a dose of 50 mg/kg/day. […] Disease progression was evaluated by macroscopic score, colon weight and colon MPO activity at sacrifice. The macroscopic score measures macroscopic damage within the distal 6 cm of the colon using a system that considers the extent of and number of ulcerations.

[3] = tested on: Murine JC mammary adenocarcinoma cells; assay: Cytotoxicity, MTS cell viability assay; format: cell-based; conditions: 72 hours
From the text: FIG. 5. Inhibition of tumor cell proliferation by Compound 1 and Compound 2. Murine JC mammary adenocarcinoma cells were exposed to the indicated concentrations of either Compound 1 (▪) or Compound 2 (▴) for 72 hr. At the end of the exposure, the number of viable tumor cells was quantified using the MTS assay. Values represent the fraction of surviving cells compared with DMSO-(vehicle)-treated control cells.
To further assess the biological efficacies of the Compounds in intact cells, Compound 1 and Compound 2 were evaluated for cytotoxicity using a murine breast cancer cell line. These experiments followed methods that have been extensively used. The cells were treated with varying doses of the test Compound for 72 hours, and then cell viability was measured using CellTiter 96® AQueous Non-Radioactive Cell Proliferation Assay (MTS) available from Promega Corporation. Values represent the mean±std. dev. percentage of cells that survive at each of the indicated concentrations of Compound 1 or Compound 2. […] However, the extent of cell killing and the potency for cell killing were greater for Compound 2 than Compound 1.

[4] = 2% DSS, 50 mg/kg oral, 6 days, C57BL/6 mice
[5] = TNBS Day 0, 50 mg/kg/day oral gavage Days 0-5, Day 6, female Sprague-Dawley rats

In the case of `CCCC(=O)Oc1ccc(CCNC(=O)C23CC4CC(C2)CC(c2ccc(Cl)cc2)(C4)C3)cc1OC(=O)CCC` [Compound 4, Butyric acid 2-butyryloxy-5-(2-{[3-(4-chlorophenyl)-adamantane-1-carbonyl]-amino}ethyl)phenyl ester], the “colon length (contraction of the colon), ester prodrugs” value (“colon length … ester prodrugs” below) (DSS-colitis model; 2% DSS, 50 mg/kg oral, 6 days, C57BL/6 mice, 50 mg/kg) is reported as “effective in preventing the contraction of the colons; also recorded: slightly less effective” and the melting point is reported as 78 to 80 °C.
In the case of `CCC(=O)Oc1ccc(CCNC(=O)C23CC4CC(C2)CC(c2ccc(Cl)cc2)(C4)C3)cc1OC(=O)CC` [Compound 3, Propionic acid 2-propionyloxy-5-(2-{[3-(4-chlorophenyl)-adamantane-1-carbonyl]-amino}ethyl)phenyl ester], the “colon length … ester prodrugs” value (DSS-colitis model; [4]) is reported as “effective in preventing the contraction of the colons” and the melting point is reported as 114 to 115 °C.
With `CC(C)C(N)C(=O)Oc1cc(CCNC(=O)C23CC4CC(C2)CC(c2ccc(Cl)cc2)(C4)C3)ccc1O` (stereo not drawn) [Compound 6, 2-Amino-3-methyl-butyric acid 5-(2-{[3-(4-chlorophenyl)adamantane-1-carbonyl]amino}ethyl)-2-hydroxyphenyl ester] the “colon length … ester prodrugs” value (DSS-colitis model; [4]) was “effective in preventing the contraction of the colons” and the “colonic MPO activity, ester prodrugs” value (DSS-colitis model; 2% DSS, 50 mg/kg oral, 6 days, C57BL/6 mice, 4-5 per group (Example 17, FIG. 11)) was “all of the Compounds except Compound 6 substantially prevented the elevation of colonic MPO activity”.
With `O=C(NCCc1ccc(O)c(O)c1)C12CC3CC(C1)CC(c1ccc(Cl)cc1)(C3)C2` [Compound 1, 3-(4-Chlorophenyl)-adamantane-1-carboxylic acid [2-(3,4-dihydroxyphenyl)-ethyl]amide] the “Disease Activity Index (DAI)” value (DSS-colitis model; 2% DSS in drinking water, 50 mg/kg daily oral, Day 6, C57BL/6 mice) was “reduced the intensity of the IBD manifestations”, the “colon myeloperoxidase (MPO) activity (neutrophil infiltration)” value (DSS-colitis model; 2% DSS, 50 mg/kg daily oral, Day 6, C57BL/6 mice (Example 16, FIG. 9)) was “markedly attenuated” and the colon length (DSS-colitis model; 2% DSS, 50 mg/kg oral, Day 6, C57BL/6 mice (Example 16, FIG. 8)) was “colons of significantly longer length”. The “time of maximum plasma concentration of Compound 1” value ([1]; 50 mg/kg intravenous, female Balb/C mice, sampling at 2, 15, 30, 60 minutes) was “earliest time point”, the “half-time for clearance of Compound 1 from plasma” value ([1]; 50 mg/kg of the named compound by intravenous injection in PEG400, female Balb/C mice, Compound 1 measured) was “approximately 5 minutes” and the Compound-related toxicities ([2]; 50 mg/kg/day oral gavage Days 0-5, rats sacrificed on Day 6) was “no Compound-related toxicities apparent”. For the same compound, the “Macroscopic Score of colon damage” value [2, 5] was “but not Compound 1, reduced the Macroscopic Score; also recorded: much less active”, the colon weight [2, 5] was “but not Compound 1 reduced the elevation of the colon weight; also recorded: much less active” and the “inhibition of tumor cell proliferation (cell viability)” value [3] was “can inhibit tumor cell proliferation”.
